{
  "source": "patent US20190192699A1",
  "about": "“NUCLEAR IMAGING AND RADIOTHERAPEUTICS AGENTS TARGETING CARBONIC ANHYDRASE IX AND USES THEREOF” (THE JOHNS HOPKINS UNIVERSITY, priority 2016, published 2019)",
  "key": {"SK-RC-52 xenografts": {"test_system": "SK-RC-52 xenografts", "assay": "Biodistribution of [Al18F]XYIMSR-04", "assay_type": "in vivo, mice", "details": "1 h post-injection", "method": "(§1) Cell Lines and Mouse Models. Animal experiments were performed in accordance with protocols approved by the Johns Hopkins Animal Care and Use Committee (ACUC). Six-week-old female NOD/SCID mice were purchased from the Animal Resource Core of the Sidney Kimmel Comprehensive Cancer Center of Johns Hopkins and were subcutaneously injected in the lower left flank or upper right flank with 1×10^6 SK-RC-52 cells in RPMI 1640 GlutaMAX™ media (Life Technologies, Frederick, Md.) supplemented with 1% fetal bovine serum (FBS). Mice were monitored for tumor size and used for SPECT/CT imaging when the size of the tumor reached 100 mm^3.\nBiodistribution of [Al^18F]XYIMSR-04. Mice bearing SK-RC-52 xenografts within the lower left flank were injected intravenously with 740 kBq (20 μCi) of [Al^18F]XYIMSR-04 in 200 μL of PBS. At specific 1 hour time point mentioned in the paper, mice (n=5) were sacrificed by cervical dislocation and the blood was immediately collected by cardiac puncture. Heart, lungs, pancreas, spleen, fat, brain, muscle, small intestines, liver, bone, stomach, kidney, urinary bladder, and tumor were collected. Each organ was weighed and the tissue radioactivity was measured with an automated gamma counter (1282 Compugamma CS, Pharmacia/LKBNuclear, Inc., Mt. Waverly, Vic. Australia). The percentage of injected dose per gram of tissue (% ID/g) was calculated by comparison with samples of a standard dilution of the initial dose. All measurements were corrected for radioactive decay. Data were expressed as mean±standard deviation (SD). Prism software (GraphPAD, San Diego, Calif.) was used to determine statistical significance. Statistical significance was calculated using a paired t test. P-values […] were considered significant."}, "[1]": {"test_system": "CAIX-expressing SK-RC-52 tumors", "assay": "PET/CT imaging of [Al18F]XYIMSR-04", "assay_type": "in vivo, mice", "details": "7.4 MBq (200 μCi) via tail vein", "method": "as §1\nPET/CT imaging of [Al^18F]XYIMSR-04. Mice harboring subcutaneous SK-RC-52 tumors with the lower left flank were injected with 7.4 MBq (200 μCi) of [Al^18F]XYIMSR-04 in 250 μL of PBS (pH=7.0) intravenously (tail vein). Anesthesia was then induced with 3% isofluorane and maintained at 2% isoflurane. Physiologic temperature was maintained with an external light source while the mouse was on the gantry. […] Whole body 2-bed PET scan was performed using ARGUS small-animal PET/CT scanner (Sedecal, Madrid, Spain) at 250-700 keV energy window. PET acquisition times were: 5 min/bed (1 h) post-injection of [Al^18F]XYIMSR-04. PET images were co-registered with the corresponding 360-slice CT images. […]"}},
  "note": "Values joined by “and” are separate entries in the source; they are usually repeats but may differ in a detail not shown here. Equal values may be shown once. “Also recorded” adds a separate entry of the source.",
  "data": [
    {"compound": "CC(CCC(=O)N[C@@H](CC(=O)N[C@@H](CC(=O)N[C@@H](CCCCn1cc(CCCC(=O)Nc2nnc(S(N)(=O)=O)s2)nn1)C(=O)NCCOCCOCCNC(=O)CN1CCN2CCN(CC1)CC(=O)[O][Al]([18F])[O]C(=O)C2)C(=O)O)C(=O)O)(c1ccc(O)cc1)c1ccc(O)cc1", "note": "[[Al^18F]XYIMSR-04]", "values": [
      {"measurement": "Biodistribution: Bladder", "setting": "SK-RC-52 xenografts", "result": "20.12 ± 12.51", "unit": "% ID/g"},
      {"measurement": "Biodistribution: Blood", "setting": "SK-RC-52 xenografts", "result": "0.65 ± 0.11", "unit": "% ID/g"},
      {"measurement": "Biodistribution: Bone", "setting": "SK-RC-52 xenografts", "result": "1.91 ± 1.39", "unit": "% ID/g"},
      {"measurement": "Biodistribution: Brain", "setting": "SK-RC-52 xenografts", "result": "0.66 ± 0.04", "unit": "% ID/g"},
      {"measurement": "Biodistribution: Fat", "setting": "SK-RC-52 xenografts", "result": "1.54 ± 0.25", "unit": "% ID/g"},
      {"measurement": "Biodistribution: Heart", "setting": "SK-RC-52 xenografts", "result": "5.03 ± 0.51", "unit": "% ID/g"},
      {"measurement": "Biodistribution: Kidney (kid)", "setting": "SK-RC-52 xenografts", "result": "50.84 ± 2.65", "unit": "% ID/g"},
      {"measurement": "Biodistribution: Liver", "setting": "SK-RC-52 xenografts", "result": "5.55 ± 0.91", "unit": "% ID/g"},
      {"measurement": "Biodistribution: Lung", "setting": "SK-RC-52 xenografts", "result": "34.07 ± 5.85", "unit": "% ID/g"},
      {"measurement": "Biodistribution: Muscle (mm)", "setting": "SK-RC-52 xenografts", "result": "1.74 ± 0.58", "unit": "% ID/g"},
      {"measurement": "Biodistribution: Pancreas", "setting": "SK-RC-52 xenografts", "result": "3.47 ± 0.16", "unit": "% ID/g"},
      {"measurement": "Biodistribution: Sm. intestine", "setting": "SK-RC-52 xenografts", "result": "9.59 ± 1.04", "unit": "% ID/g"},
      {"measurement": "Biodistribution: Spleen", "setting": "SK-RC-52 xenografts", "result": "0.54 ± 0.18", "unit": "% ID/g"},
      {"measurement": "Biodistribution: Stomach", "setting": "SK-RC-52 xenografts", "result": "21.62 ± 1.85", "unit": "% ID/g"},
      {"measurement": "Biodistribution: Tumor", "setting": "SK-RC-52 xenografts", "result": "14.40 % ID/g and 14.40 ± 2.18 % ID/g"},
      {"measurement": "Tumor/Blood ratio", "setting": "SK-RC-52 xenografts", "result": "22.1 and 22.1 ± 1.5"},
      {"measurement": "Tumor/kid (kidney) ratio", "setting": "SK-RC-52 xenografts", "result": "0.28 and 0.28 ± 0.03"},
      {"measurement": "Tumor/mm (muscle) ratio", "setting": "SK-RC-52 xenografts", "result": "9.74 and 9.74 ± 2.9"},
      {"measurement": "PET/CT tumor imaging finding", "setting": "[1]", "result": "radiotracer uptake in tumor at 1 h post-injection; also recorded: tumor visualization by 1 h post-injection"}
    ]}
  ]
}
